Assay results reported in patent US20250304567A1, “PYRROLIDIONE DERIVATIVES AS INHIBITORS OF NF KAPPA B INDUCING KINASE” (priority 2022, published 2025).
Read-outs that look alike come from different tables or passages of the source.

What was measured:
[1] = biological target: Recombinant Human NF-kappaB-Inducing Kinase (NIK/MAP3K14) (Homo sapiens, UniProt Q99558); experiment: Inhibition of auto-phosphorylation of recombinant human NIK/MAP3K14 activity (AlphaScreen); format: biochemical; settings: 5 μM ATP, 1 nM NIK, average if tested more than once
Protocol: Assay 1: Inhibition of Auto-Phosphorylation of Recombinant Human NF-kappaB-Inducing Kinase (NIK/MAP3K14) Activity (AlphaScreen™)
NIK/MAP3K14 auto-phosphorylation activity was measured using the AlphaScreen™ (αscreen) format (Perkin Elmer). All compounds tested were dissolved in dimethyl sulfoxide (DMSO) and further dilutions were made in assay buffer. The final DMSO concentration was 0.7% (v/v) in assays. The assay buffer was 50 mM Tris pH 7.5 containing 1 mM EGTA (ethylene glycol tetraacetic acid), 1 mM DTT (dithiothreitol), 0.1 mM Na3VO4, 5 mM MgCl2, and 0.01% Tween®20. The assays were carried out in 384 well Proxiplates (Perkin Elmer). The incubations consisted of the compound, 5 μM Adenosine-5′-triphosphate (ATP), and 1 nM NIK/MAP3K14. Incubations were initiated by the addition of GST-tagged NIK/MAP3K14 enzyme, carried out for 2 h at 25° C. and terminated by addition of stop buffer containing anti-phospho-IKK Ser176/180 antibody. Protein A Acceptor and Glutathione-Donor beads were added before reading using an EnVision Multilabel Plate Reader (Perkin Elmer). The signal obtained in the wells was normalized using high (full enzyme activity, 0.7% DMSO) and low controls (no enzyme activity, 0.7% DMSO, no ATP). IC50's were determined by fitting a sigmoidal curve to % inhibition of control versus Log10 compound concentration.

[2] = test system: p-IKKa levels in L363 (NIK translocated multiple myeloma) cells; experiment: Effect of compounds on p-IKKa levels in L363 (NIK translocated multiple myeloma) cells (AlphaLISA SureFire Ultra p-IKKa Ser176/180); format: cell-based, human; settings: average if tested more than once, read-out: Assay 2 IC50
Protocol: Assay 2: Effect of Compounds on p-IKKa Levels in L363 (NIK Translocated Multiple Myeloma) Cells
All compounds tested were dissolved and serially diluted in DMSO, 1:3 dilution for 11 points in an Echo compatible plate. 100% DMSO was added to columns 12 and 24 of the plate to serve as high and low signal controls. This compound plate was used to spot 20 nL of compound or DMSO into a Greiner 384 well TC plate (781080). The final DMSO concentration was 0.3% (v/v) in cell assays. Human L363 cells (ATCC) were cultured in RPM11640 medium supplemented with GlutaMax, non-essential amino acids, sodium pyruvate and 10% fetal bovine serum. Cells were routinely maintained at densities of 0.2×10^6 cells per ml-2×10^6 cells per mL at 37° C. in a humidified 5% CO2 atmosphere incubator. Cells were passaged twice a week splitting back to obtain the low density. The day before the assay, cells were washed twice in HBSS (Hank's Balanced Salt Solution), resuspended in Dulbecco's Modified Eagle Medium (DMEM)+0.5% IgG and protease free BSA (Jackson Immuno Research Laboratories), +/−250 ng/ml recombinant human B-cell activating factor (BAFF/BLyS/TNFSF13B) and incubated overnight at 37° C. in a humidified 5% CO2 atmosphere (bulk stimulation with or without BAFF). The next day, the cell concentration was adjusted to 1×10^7 cells/ml in DMEM+/−250 ng/ml BAFF+/−10 μM MG132 and plated at 10 μl/well into compound or DMSO spotted 384 well TC plates. Seeded cells were incubated at 37° C. in a humidified 5% CO2 atmosphere for 6 h. After 6 h, the plates were removed from the incubator and cell lysis was achieved by the addition of 2.5 μl 5× lysis buffer containing protease and phosphatase inhibitors, followed by shaking on a plate shaker at room temperature for 15 min. At the end of this incubation, lysed cells were sequentially treated and incubated with acceptor and donor bead mixes according to the manufacturer's protocol for a 1 plate/2-incubation suspension cell assay (AlphaLISA SureFire Ultra p-IKKa (Ser 176/180) Assay Kit (Perkin Elmer). Plates were read using an EnVision Multilabel Plate Reader (Perkin Elmer). Within an experiment, a concentration response curve for each compound was run in duplicate. The signal obtained in the test wells was normalized using high signal (BAFF stimulated cells, DMSO, MG132) and low signal (unstimulated cells, DMSO) controls. To determine the IC50, a sigmoidal curve was fitted to the plot of % inhibition versus Log10 compound concentration.

[3] = Homo sapiens, L-363, p-IKKa levels in L363 cells

Recombinant Human NF-kappaB-Inducing Kinase (NIK/MAP3K14), sequence (Q99558 whole entry): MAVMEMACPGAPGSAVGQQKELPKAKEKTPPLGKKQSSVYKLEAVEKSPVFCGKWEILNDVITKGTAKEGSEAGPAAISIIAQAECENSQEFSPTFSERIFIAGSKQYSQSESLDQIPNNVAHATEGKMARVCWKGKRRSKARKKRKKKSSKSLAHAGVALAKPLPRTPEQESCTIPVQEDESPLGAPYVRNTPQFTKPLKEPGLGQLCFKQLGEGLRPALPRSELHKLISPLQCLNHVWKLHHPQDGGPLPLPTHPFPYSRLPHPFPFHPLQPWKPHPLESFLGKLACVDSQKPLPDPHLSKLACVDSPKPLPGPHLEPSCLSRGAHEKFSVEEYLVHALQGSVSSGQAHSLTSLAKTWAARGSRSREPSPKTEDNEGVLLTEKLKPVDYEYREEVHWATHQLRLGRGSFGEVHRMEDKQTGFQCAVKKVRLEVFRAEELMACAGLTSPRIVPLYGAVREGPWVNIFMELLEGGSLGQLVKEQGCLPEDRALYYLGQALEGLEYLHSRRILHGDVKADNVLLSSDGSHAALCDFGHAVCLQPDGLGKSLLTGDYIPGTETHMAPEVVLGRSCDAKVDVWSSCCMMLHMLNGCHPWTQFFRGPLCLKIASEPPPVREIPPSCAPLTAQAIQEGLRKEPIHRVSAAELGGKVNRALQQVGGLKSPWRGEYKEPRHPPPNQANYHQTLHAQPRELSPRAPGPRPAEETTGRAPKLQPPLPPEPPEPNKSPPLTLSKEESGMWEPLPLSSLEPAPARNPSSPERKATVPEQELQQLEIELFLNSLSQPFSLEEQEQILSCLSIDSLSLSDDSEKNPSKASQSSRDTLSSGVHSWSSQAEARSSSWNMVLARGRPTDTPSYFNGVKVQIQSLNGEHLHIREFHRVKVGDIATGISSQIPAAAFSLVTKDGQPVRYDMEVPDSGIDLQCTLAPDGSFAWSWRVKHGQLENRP

In the case of `CN1CC[C@@](O)(c2cncc(-c3ccn(-c4ccnc(Nc5cn(CC(F)F)nc5OC5CC5)n4)n3)c2)C1=O` (single isomer, unassigned) [Example 145, (R)-3-(5-(1-(2-((3-cyclopropoxy-1-(2,2-difluoroethyl)-1H-pyrazol-4-yl)amino)pyrimidin-4-yl)-1H-pyrazol-3-yl)pyridin-3-yl)-3-hydroxy-1-methylpyrrolidin-2-one or (S)-3-(5-(1-(2-((3-cyclopropoxy-1-(2,2-difluoroethyl)-1H-pyrazol-4-yl)amino)pyrimidin-4-yl)-1H-pyrazol-3-yl)pyridin-3-yl)-3-hydroxy-1-methylpyrrolidin-2-one], the IC50 [1] is reported as under 100 nM and the IC50 [2, 3] is reported as under 100 nM.
With `CN1CC[C@@](O)(c2cccc(-c3nc(-c4ccnc(Nc5cnn(C6CCC6)c5)n4)cs3)c2)C1=O` [Example 73, (R)-3-(3-(4-(2-((1-cyclobutyl-1H-pyrazol-4-yl)amino)pyrimidin-4-yl)thiazol-2-yl)phenyl)-3-hydroxy-1-methylpyrrolidin-2-one] the IC50 [1] was under 100 nM and the IC50 [2, 3] was 100 to 500 nM.
Molecule `CC(Nc1nccc(-c2nc(-c3cccc(C4(O)CCN(C)C4=O)c3)cs2)n1)c1cnn(C)c1` (single isomer, unassigned) [Example 39] has an IC50 [1] of under 100 nM and an IC50 ([2]; p-IKKa levels in L363 cells) of under 100 nM.
`CN1CC[C@@](O)(c2cccc(-c3nc(-c4ccnc(NCCc5ccccn5)n4)cs3)c2)C1=O` [Example 189] showed an IC50 [1] of 100 to 500 nM and an IC50 [2, 3] of over 501 nM.
With `CN1CC[C@@](O)(c2cccc(-c3nc(-c4ccnc(Nc5ccn(C)n5)n4)co3)c2)C1=O` [Example 1, (R)-3-hydroxy-1-methyl-3-(3-(4-(2-((1-methyl-1H-pyrazol-3-yl)amino)pyrimidin-4-yl)oxazol-2-yl)phenyl)pyrrolidin-2-one] the IC50 [1] was under 100 nM and the IC50 [2, 3] was 100 to 500 nM.
Molecule `CN1CC[C@@](O)(c2cccc(-c3nc(-c4ccnc(Nc5nc6ccccc6n5C)n4)cs3)c2)C1=O` [Example 272, (R)-3-Hydroxy-1-methyl-3-(3-(4-(2-((1-methyl-1H-benzo[d]imidazol-2-yl)amino)pyrimidin-4-yl)thiazol-2-yl)phenyl)pyrrolidin-2-one] has an IC50 [1] of over 501 nM and an IC50 [2, 3] of over 501 nM.
For `CN1CCC(O)(c2ccc(F)c(-c3csc(-c4ccnc(Nc5ccn(C)n5)n4)n3)c2)C1=O` (single isomer, unassigned) [Example 29, 3-(4-fluoro-3-(2-(2-((1-methyl-1H-pyrazol-3-yl)amino)pyrimidin-4-yl)thiazol-4-yl)phenyl)-3-hydroxy-1-methylpyrrolidin-2-one], the IC50 [1] was 100 to 500 nM and the IC50 ([2]; p-IKKa levels in L363 cells) was over 501 nM.
With `CN1CC[C@@](O)(c2cccc(-c3nc(-c4ccnc(Nc5cnn(CC(F)F)c5)n4)cs3)c2)C1=O` [Example 141, (R)-3-(3-(4-(2-((1-(2,2-difluoroethyl)-1H-pyrazol-4-yl)amino)pyrimidin-4-yl)thiazol-2-yl)phenyl)-3-hydroxy-1-methylpyrrolidin-2-one] the IC50 [1] was under 100 nM and the IC50 [2, 3] was under 100 nM.
With `CN1CC[C@@](O)(c2cccc(-c3nc(-c4ccnc(Nc5cc(Cl)n(C)n5)n4)cs3)c2)C1=O` [Example 261, (R)-3-(3-(4-(2-((5-Chloro-1-methyl-1H-pyrazol-3-yl)amino)pyrimidin-4-yl)thiazol-2-yl)phenyl)-3-hydroxy-1-methylpyrrolidin-2-one] the IC50 [1] was under 100 nM and the IC50 [2, 3] was 100 to 500 nM.
`C[C@@H](Nc1nccc(-c2nc(-c3cc([C@]4(O)CCN(C)C4=O)ccn3)cs2)n1)c1ccnn1C` [Example 291, (R)-3-Hydroxy-1-methyl-3-(2-(2-(2-(((R)-1-(1-methyl-1H-pyrazol-5-yl)ethyl)amino)pyrimidin-4-yl)thiazol-4-yl)pyridin-4-yl)pyrrolidin-2-one] was tested, and the IC50 [1] was under 100 nM and the IC50 [2, 3] was 100 to 500 nM.
In the case of `COCCn1ccc(Nc2nccc(-c3csc(-c4cccc([C@]5(O)CCN(C)C5=O)c4)n3)n2)n1` [Example 260, (R)-3-Hydroxy-3-(3-(4-(2-((1-(2-methoxyethyl)-1H-pyrazol-3-yl)amino)pyrimidin-4-yl)thiazol-2-yl)phenyl)-1-methylpyrrolidin-2-one], the IC50 [1] is reported as under 100 nM and the IC50 [2, 3] is reported as 100 to 500 nM.
Work on `CN1CC[C@@](O)(c2cccc(-c3nc(-c4ccnc(Nc5cn(C)nc5OC5CCCC5)n4)cs3)c2)C1=O` [Example 95, (R)-3-(3-(4-(2-((3-(cyclopentyloxy)-1-methyl-1H-pyrazol-4-yl)amino)pyrimidin-4-yl)thiazol-2-yl)phenyl)-3-hydroxy-1-methylpyrrolidin-2-one] yielded an IC50 [1] of under 100 nM and an IC50 [2, 3] of 100 to 500 nM.
For `COc1nn(CC(F)(F)F)cc1Nc1nccc(-c2csc(-c3cccc([C@]4(O)CCN(C)C4=O)c3)n2)n1` [Example 101, (R)-3-hydroxy-3-(3-(4-(2-((3-methoxy-1-(2,2,2-trifluoroethyl)-1H-pyrazol-4-yl)amino)pyrimidin-4-yl)thiazol-2-yl)phenyl)-1-methylpyrrolidin-2-one], the IC50 [1] was under 100 nM and the IC50 [2, 3] was under 100 nM.
`CN1CCC(Nc2nccc(-c3csc(-c4cccc([C@]5(O)CCN(C)C5=O)c4)n3)n2)C1=O` (stereo partly shown) [Example 201] gave an IC50 [1] of over 501 nM and an IC50 [2, 3] of over 501 nM.
`CN1CC[C@@](O)(c2cccc(-c3nc(-c4ccnc(Nc5cccc(C(F)(F)F)n5)n4)cs3)c2)C1=O` [Example 169, (R)-3-Hydroxy-1-methyl-3-(3-(4-(2-((6-(trifluoromethyl)pyridin-2-yl)amino)pyrimidin-4-yl)thiazol-2-yl)phenyl)pyrrolidin-2-one] was tested, and the IC50 [1] was under 100 nM and the IC50 [2, 3] was over 501 nM.
`COCCn1cc(Nc2nccc(-c3csc(-c4cccc([C@]5(O)CCN(C)C5=O)c4)n3)n2)cn1` [Example 265, (R)-3-Hydroxy-3-(3-(4-(2-((1-(2-methoxyethyl)-1H-pyrazol-4-yl)amino)pyrimidin-4-yl)thiazol-2-yl)phenyl)-1-methylpyrrolidin-2-one] gave an IC50 [1] of under 100 nM and an IC50 [2, 3] of 100 to 500 nM.
For `CC(Nc1nccc(-c2csc(-c3cccc([C@]4(O)CCN(C)C4=O)c3)n2)n1)C(=O)N1CCN(C)CC1` (stereo partly shown) [Example 229], the IC50 [1] was 100 to 500 nM and the IC50 [2, 3] was over 501 nM.
With `CN1CC[C@@](O)(c2ccnc(-c3ccn(-c4ccnc(Nc5cnn6ccccc56)n4)n3)c2)C1=O` (single isomer, unassigned) [Example 153, (R)-3-hydroxy-1-methyl-3-(2-(1-(2-(pyrazolo[1,5-a]pyridin-3-ylamino)pyrimidin-4-yl)-1H-pyrazol-3-yl)pyridin-4-yl)pyrrolidin-2-one or (S)-3-hydroxy-1-methyl-3-(2-(1-(2-(pyrazolo[1,5-a]pyridin-3-ylamino)pyrimidin-4-yl)-1H-pyrazol-3-yl)pyridin-4-yl)pyrrolidin-2-one] the IC50 [1] was under 100 nM and the IC50 [2, 3] was under 100 nM.
`CN1CC[C@@](O)(c2cccc(-c3nc(-c4ccnc(Nc5ccn(C(F)(F)F)n5)n4)cs3)c2)C1=O` [Example 257, (R)-3-Hydroxy-1-methyl-3-(3-(4-(2-((1-(trifluoromethyl)-1H-pyrazol-3-yl)amino)pyrimidin-4-yl)thiazol-2-yl)phenyl)pyrrolidin-2-one] was tested, and the IC50 [1] was under 100 nM and the IC50 [2, 3] was over 501 nM.
For `CNC(=O)c1ccc(C)c(Nc2nccc(-c3csc(-c4cccc([C@]5(O)CCN(C)C5=O)c4)n3)n2)c1` [Example 10, (R)-3-((4-(2-(3-(3-Hydroxy-1-methyl-2-oxopyrrolidin-3-yl)phenyl)thiazol-4-yl)pyrimidin-2-yl)amino)-N,4-dimethylbenzamide], the IC50 [1] was under 100 nM and the IC50 [2, 3] was 100 to 500 nM.
